# Assay results: patent publication US10099045B2, “Administration of antibiotics and therapeutic agents” (priority 2008, dated 2018)
# Several values for one entry are separate records, joined by “and”; a condition that tells them apart may be missing. Equal entries are not always repeated. Where two headings read alike, the source gives them in different places.
# Key:
# STA 29213 MSSA = assay: MIC of Cefazolin, broth dilution method; assay type: cell-based, S. aureus; settings: for MIC/Cefazolin: single determinations
# Excerpt: (§1) Accordingly, further tests of Cephazolin with a range of different MRSA strains at concentrations well above the dose achievable by IV delivery were made to understand these finding. The Minimum inhibitory concentration (MIC) of Cephazolin with respect to these various strains is reported below in Table 1 in units are in .mu·g/ml of Cefazolin using the broth dilution method. MIC is the lowest concentration of an antimicrobial that will inhibit the visible growth of a microorganism after overnight incubation. STA 29213 is the conventional strain of S. aureus, showing normal sensitivity to Cefazolin with an MIC of 0.5.mu·g/ml.
# (§2) The colony count in the last column is just a quality control measure to insure the correct innooculum.
# MRSA 116 = assay: MIC of Cefazolin, broth dilution method; assay type: cell-based, Staphylococcus aureus
# Excerpt: as §1, §2
# MRSA 142 ATCC 33591 MRSA = assay: MIC of Cefazolin, broth dilution method; assay type: cell-based, Staphylococcus aureus
# Excerpt: as §1, §2
# MRSA 143 = assay: MIC of Cefazolin, broth dilution method; assay type: cell-based, Staphylococcus aureus
# Excerpt: as §1, §2
# MRSA 144 = assay: MIC of Cefazolin, broth dilution method; assay type: cell-based, Staphylococcus aureus
# Excerpt: as §1, §2
# MRSA 145 = assay: MIC of Cefazolin, broth dilution method; assay type: cell-based, Staphylococcus aureus
# Excerpt: as §1, §2
# MRSA 146 = assay: MIC of Cefazolin, broth dilution method; assay type: cell-based, Staphylococcus aureus
# Excerpt: as §1, §2
# MRSA 147 = assay: MIC of Cefazolin, broth dilution method; assay type: cell-based, Staphylococcus aureus
# Excerpt: as §1, §2
# MRSA 148 = assay: MIC of Cefazolin, broth dilution method; assay type: cell-based, Staphylococcus aureus
# Excerpt: as §1, §2
# MRSA 149 = assay: MIC of Cefazolin, broth dilution method; assay type: cell-based, Staphylococcus aureus
# Excerpt: as §1, §2
# MRSA 150 = assay: MIC of Cefazolin, broth dilution method; assay type: cell-based, Staphylococcus aureus
# Excerpt: as §1, §2
# MRSA 151 = assay: MIC of Cefazolin, broth dilution method; assay type: cell-based, Staphylococcus aureus
# Excerpt: as §1, §2
# MRSA 152 = assay: MIC of Cefazolin, broth dilution method; assay type: cell-based, Staphylococcus aureus
# Excerpt: as §1, §2
# MRSA 56 (494) = assay: MIC of Cefazolin, broth dilution method; assay type: cell-based, Staphylococcus aureus
# Excerpt: as §1, §2
# Mu 3 MRSA hVISA = assay: MIC of Cefazolin, broth dilution method; assay type: cell-based, Staphylococcus aureus; settings: for MIC/Cefazolin: single determinations
# Excerpt: as §1, §2
# Mu 50 MRSA VISA = assay: MIC of Cefazolin, broth dilution method; assay type: cell-based, Staphylococcus aureus
# Excerpt: as §1, §2
# STA 25923 MSSA = assay: MIC of Cefazolin, broth dilution method; assay type: cell-based, Staphylococcus aureus
# Excerpt: as §1, §2
# [1] = Adipose tissue and serum concentration after subcutaneous infusion with transcutaneous ultrasound, elective abdominoplasty; settings: for blood serum concentration: 1 gm subcutaneous plus ultrasound, when surgery was completed about an hour later
# Experimental: A prophylactic dose of the antibiotic Cafazolin was delivered to a patient by the above procedure prior to elective abdominoplasty using the Silberg Tissue Preparation Systems TM Model ME 800 (9801427) Mettler Surgical, Anaheim, Calif.). About 250 cc of prewarmed saline containing 1 gm of Cefazolin was injected under a surgical incision line 201 that was about 5 cm long. Small sample of adipose tissue where taken during the surgical procedure to determine if the Cefazolin would remain above desired concentration reported by Ohge et al., and thus remain sufficiently high through the procedure. Further, blood serum samples were taken during the procedure to determine the potential for a longer term systemic delivery.
# [2] = test system: methicillin-sensitive Staphylococcus aureus (MSSA), Klebsiella pneumoniae, Escherichia coli, Streptococcus spp.; settings: 360 MSSA, 204 K. pneumoniae, 314 E. coli, 30 Streptococcus spp. isolates; cited from earlier work
# [3] = intravenous bolus 1 g, cited from earlier work
# [4] = Staphylococcus aureus, read-out: Median MIC
smiles,measurement,setting,value
Cc1nnc(SCC2=C(C(=O)O)N3C(=O)[C@@H](NC(=O)Cn4cnnn4)[C@H]3SC2)s1 [Cefazolin],MIC,STA 29213 MSSA; [4],0.5 µg/mL
same,MIC/Cefazolin,STA 29213 MSSA; MSSA strain,1 µg/mL
same,MIC/Cefazolin,STA 29213 MSSA; conventional S. aureus strain STA 29213,0.5 µg/mL
same,MIC/Cefazolin,"MRSA 116; MRSA 116, single determinations",512 µg/mL and 256 µg/mL
same,MIC,"MRSA 116; Staphylococcus aureus, MRSA 116, read-out: Median MIC",256 µg/mL
same,MIC/Cefazolin,"MRSA 142 ATCC 33591 MRSA; MRSA 142 ATCC 33591, single determinations",256 µg/mL
same,MIC,"MRSA 142 ATCC 33591 MRSA; Staphylococcus aureus, MRSA 142 ATCC 33591, read-out: Median MIC",256 µg/mL
same,MIC/Cefazolin,"MRSA 143; MRSA 143, single determinations",64 µg/mL and 128 µg/mL
same,MIC,"MRSA 143; Staphylococcus aureus, MRSA 143, read-out: Median MIC",128 µg/mL
same,MIC/Cefazolin,"MRSA 144; MRSA 144, single determinations",64 µg/mL and 128 µg/mL
same,MIC,"MRSA 144; Staphylococcus aureus, MRSA 144, read-out: Median MIC",64 µg/mL
same,MIC/Cefazolin,"MRSA 145; MRSA 145, single determinations",128 µg/mL
same,MIC,"MRSA 145; Staphylococcus aureus, MRSA 145, read-out: Median MIC",128 µg/mL
same,MIC/Cefazolin,"MRSA 146; MRSA 146, single determinations",64 µg/mL and 128 µg/mL
same,MIC,"MRSA 146; Staphylococcus aureus, MRSA 146, read-out: Median MIC",64 µg/mL
same,MIC/Cefazolin,"MRSA 147; MRSA 147, single determinations",64 µg/mL
same,MIC,"MRSA 147; Staphylococcus aureus, MRSA 147, read-out: Median MIC",64 µg/mL
same,MIC/Cefazolin,"MRSA 148; MRSA 148, single determinations",256 µg/mL and 128 µg/mL
same,MIC,"MRSA 148; Staphylococcus aureus, MRSA 148, read-out: Median MIC",256 µg/mL
same,MIC/Cefazolin,"MRSA 149; MRSA 149, single determinations",128 µg/mL
same,MIC,"MRSA 149; Staphylococcus aureus, MRSA 149, read-out: Median MIC",128 µg/mL
same,MIC/Cefazolin,"MRSA 150; MRSA 150, single determinations",512 µg/mL
same,MIC,"MRSA 150; Staphylococcus aureus, MRSA 150, read-out: Median MIC",512 µg/mL
same,MIC/Cefazolin,"MRSA 151; MRSA 151, single determinations",128 µg/mL
same,MIC,"MRSA 151; Staphylococcus aureus, MRSA 151, read-out: Median MIC",128 µg/mL
same,MIC/Cefazolin,"MRSA 152; MRSA 152, single determinations",4 µg/mL and 8 µg/mL
same,MIC,"MRSA 152; Staphylococcus aureus, MRSA 152, read-out: Median MIC",4 µg/mL
same,MIC,MRSA 56 (494); [4],128 µg/mL
same,MIC/Cefazolin,MRSA 56 (494); single determinations,64 µg/mL and 128 µg/mL
same,MIC relative to the dose required for normal strains,"Mu 3 MRSA hVISA; MU 3, most resistant strain",about 50 times
same,MIC/Cefazolin,Mu 3 MRSA hVISA; Mu 3 MRSA hVISA,512 µg/mL
same,MIC/Cefazolin,"Mu 3 MRSA hVISA; Mu 3 MRSA hVISA, listed as antibiotic",about 512 μg/ml
same,MIC,"Mu 3 MRSA hVISA; Staphylococcus aureus, Mu 3 MRSA hVISA, read-out: Median MIC",512 µg/mL
same,MIC,Mu 50 MRSA VISA; [4],256 µg/mL
same,MIC/Cefazolin,Mu 50 MRSA VISA; single determinations,256 µg/mL
same,MIC,STA 25923 MSSA; [4],0.5 µg/mL
same,MIC/Cefazolin,STA 25923 MSSA; single determinations,0.5 µg/mL
same,blood serum concentration,[1],about 10 μg/ml
same,blood serum concentration,[1]; listed as antibiotic,less than 10 μg/ml
same,tissue concentration relative to intravenous administration of Ohge et al.,"[1]; human, in vivo",about 50 times
same,Kp,"[1]; human, in vivo, 1 gm",< 10
same,tissue level to achieve minimum inhibitory concentrations for 80% (MIC80) of four bacterial species,[2],about 4 μg/ml
same,serum concentration,[3]; after about 4 hours,about 10 μg/ml
same,mean tissue concentration,[3]; after slightly more than 2 hours of surgery,below 4 μg/ml
same,mean tissue concentration,[3]; an hour after surgery commenced,about 10 μg/ml
same,mean tissue concentration,"[3]; an hour after surgery commenced, listed as antibiotic",10 µg/mL
same,serum concentration,[3]; end of the same time period (slightly more than 2 hours),~40 µg/mL
same,serum concentration,[3]; start of the same time period (an hour after surgery commenced),about 80 μg/ml
